The values below come from patent publication US20070249561A1, “Pharmacological method for treatment of neuropathic pain” (priority 2006, published 2007).

Data set [1] concerns spared nerve injury (SNI) model of neuropathic pain in rats. The experiment in a line: Mechanical threshold (von Frey) to hindpaw withdrawal in spared nerve injury (SNI) rats. Format: in vivo, rat. The conditions noted are these: for effect of agonist alone on latency to hindpaw withdrawal (mechanical): 100 μg intrathecal; for effect on behavioral signs of neuropathic pain (mechanical threshold / latency to hindpaw withdrawal): dose series. From the text: (§1) Male Sprague-Dawley rats (Charles Rivers Laboratories, Inc) were used, and weighed 280-320 g at the time of surgery and intrathecal catheter implantation, and 340-380 g during pharmacological testing. Animals were housed in individual cages on a 12-hour light/dark cycle starting at 6 a.m., and were given food and water […]. All animal use protocols were approved by the Institutional Animal Care and Use Committee (IACUC) of Tulane University.
(§2) Neuropathic pain was modeled in rats using the spared nerve injury model (“SNI”), which is widely accepted as a model for neuropathic pain. To produce the model, rats were anesthetized with isoflurane (5% induction, then 1.5% maintenance in oxygen). As previously described, an incision was made in the skin at the level of the trifurcation of the left sciatic nerve (Decosterd et al., 2000). The overlying muscles were retracted, exposing the common peroneal, tibial, and sural nerves. The common peroneal and tibial nerves were ligated with 6-0 silk (Ethicon, Somerville, N.J.), and then the knot and adjacent nerve (2 mm) were transected. Care was taken to avoid touching the sural nerve branch. The muscle was then sutured with 4-0 absorbable sutures (Ethicon) and the wound was closed with metal clips.
(§3) At the time of nerve injury, animals were re-anesthetized with isoflurane (Baxter, Deerfield, Ill.), and then placed in a stereotaxic apparatus (Stoelting, Wood Dale, Ill.). As previously described (Malkmus et al., 2004), rats were implanted with polyethylene-10 (PE-10, Clay Adams, Sparks, Md.) intrathecal catheters. Briefly, the animal's head was flexed forward in the stereotaxic apparatus, an incision was made in the skin at the back of the head and neck, and the cisternal membrane was exposed by sharp dissection. The membrane was gently punctured with the tip of a #15 scalpel blade, and the distal end of a 7.5 cm long PE-10 catheter was passed through the opening in the cisternal membrane, into the intrathecal space. The catheter was loosely sutured to subcutaneous tissue, leaving the proximal end external to the animal and accessible to the experimenter, and the skin was then approximated using 4-0 absorbable sutures (Ethicon).
(§4) Following surgery, rats were allowed 7 days to recover prior to drug administration and experimentation. To minimize any effects of animal handling on experimental data, drugs and vehicle (saline, or saline and DMSO) were administered via remote injection. PE-10 tubing, filled with vehicle or drug, was used to connect a Hamilton microsyringe to a 30-gauge microinjector, through which 15-20 μL of vehicle or drug was delivered to the lumbar region of the spinal cord via the intrathecal catheter. Progress of the injection was visually confirmed by observing the movement of a small air bubble within the PE-10 tubing. Injectors were left in place an additional minute after fluid delivery, to minimize backflow within the catheter, and animals were then returned to the testing box.
(§5) All drug solutions were freshly prepared daily. After evaporating methyl acetate solvent under a gentle nitrogen stream, 15-deoxy-Δ^12,14 PGJ2 was reconstituted in isotonic saline (comprising 0.9% sodium chloride in water, also called “normal saline”). Rosiglitazone was diluted to the concentrations indicated in the FIGS. with a solution of 30% dimethylsulfoxide (DMSO) and 70% isotonic saline. 15-deoxy-Δ^12,14 PGJ2, rosiglitazone, BADGE, and DMSO were all obtained from Cayman Chemicals (Ann Arbor, Mich.). As used herein, the term “vehicle” refers to the solvent used to dilute the drugs, and may comprise without limitation, DMSO, saline, and water.
(§6) Data are presented as mean±standard error of the mean (SEM). Differences between means were analyzed by two-way repeated-measures analysis of variance (ANOVA), with drug treatment as the between-subjects variable and time as the repeated measure. […]

The test system is the same in data set [2]. The experiment in a line: Cold allodynia (acetone drop, paw withdrawal duration) in SNI rats. Format: in vivo, rat.
Excerpt: as §1, §2, §3, §4, §5, §6

For data set [3], the system named is animals subjected to sham SNI surgery. The experiment in a line: Sensory thresholds (mechanical, cold, infrared heat) in rats subjected to sham SNI surgery. As to conditions: p>0.05. Format: in vivo, rat. As for the experimental part: The procedures used to evaluate behavioral signs of mechanical and cold allodynia were essentially the same for rats as they were for mice. Animals were acclimated to a stainless steel grid within individual Plexiglas boxes for 30-60 minutes, and then tested for mechanical allodynia and cold allodynia. In all animals, mechanical allodynia was assessed using von Frey (VF) filaments (Stoelting, Inc), and was done before assessing cold allodynia.
To assess mechanical allodynia, the plantar region of each hind paw was stimulated with an incremental series of 8 different VF hairs (monofilaments of logarithmically varying stiffness). In SNI rats and mice, the stimulus region was localized to the sural innervation territory of the lateral aspect of the plantar hind paw. The 50% withdrawal threshold (“mechanical” threshold) was determined using the up-down method of Dixon, modified by Chaplan et al. (Chaplan et al., 1994). First, an intermediate von Frey monofilament (e.g., for rats, number 4.31 was used, which exerts a force of 2.0 g) was applied perpendicular to the plantar skin, causing a slight bending of the hair. In the event of a positive response (defined as rapid withdrawal of the paw within 6 seconds), a smaller filament was tested. In the event of a negative response, a larger filament was tested. The mechanical threshold is the smallest amount of force required to evoke a positive response. […] In such cases von Frey testing was either terminated, or that data was not included in the final analysis.
Cold allodynia was evaluated by applying a drop of acetone to the plantar paw of control and SNI rats. Acetone was applied via a syringe connected to PE-90 tubing, flared at the tip to a diameter of 3.5 mm. Surface tension maintained the volume of the drop to 10-12 μL. The length of time the animal lifted or shook its paw was recorded. The duration of paw withdrawal was recorded for 30 seconds, and three observations were averaged. […]
(§7) To assess more subtle behavioral effects, we evaluated the effects of rosiglitazone on motor coordination and sensory thresholds in uninjured rats.

Data set [4] shares this test system. The experiment in a line: Accelerating rotarod test of motor coordination in sham SNI rats. Format: in vivo, rat. As for the experimental part: To evaluate the effect of PPARγ agonists on proprioceptive function, rats were placed on an accelerating rotarod (Stoelting, Wood Dale, III). The rotating rod was subdivided into four compartments for the simultaneous assessment of four animals. Initially rotating at a rate of 4 rpm, the system was adjusted gradually over 10 minutes to a maximum speed of 40 rpm. The time that a rat remained on the rotating rod without falling off was recorded—the rotarod duration. After sham SNI surgery and one day before testing, animals were acclimated to the rotarod for 5-10 trials, yielding average latencies of approximately 3 minutes. On the day of testing, rotarod duration was measured three times prior to drug or vehicle administration, and the times averaged. After drug administration, rotarod duration was measured in triplicate at 60 and 120 minutes from the time of administration, with durations averaged for each time point.
as §7
For orientation: Falling from the rotarod earlier than controls is read as motor impairment.

For a further data set, the system named is SNI rats. The conditions noted are these: rat, in vivo.

Each structure is given as a SMILES string.

For the molecule `CN(CCOc1ccc(CC2SC(=O)NC2=O)cc1)c1ccccn1` (stereo not shown) [rosiglitazone, 5-[[4-[2-(methyl-pyridin-2-yl-amino)ethoxy]phenyl]methyl]thiazolidine-2,4-dione], in data set [1] (SNI rats), the “effect of agonist alone on latency to hindpaw withdrawal (mechanical)” value was “reduced behavioral signs of neuropathic pain in a reversible manner”. In data set [1] (intrathecal, SNI rats), the “dissipation of analgesic effect (mechanical threshold)” value is “dissipated after four hours”; the “onset of analgesic effect after injection (mechanical threshold)” value is no more than 30 min; the “time of peak analgesic effect after injection (mechanical threshold)” value is “about 90 minutes”; the “effect on behavioral signs of neuropathic pain (mechanical threshold / latency to hindpaw withdrawal)” value is “reduced behavioral signs of neuropathic pain in a dose-dependent and reversible manner”. For the same molecule, the “effect of agonist alone on cold hypersensitivity” value in data set [2] (100 μg intrathecal) is “decreased cold hypersensitivity in a reversible manner”. Also, in data set [2] (intrathecal), the “dissipation of analgesic effects (cold allodynia)” value was “dissipated after four hours”, the “onset of analgesic effects after injection (cold allodynia)” value was no more than 30 min and the “time of most pronounced analgesic effects (cold allodynia)” value was “approximately 90 minutes”. Moreover, the “effect on cold hypersensitivity (paw withdrawal duration after acetone)” value in data set [2] (intrathecal, dose series) is “decreased cold hypersensitivity in a dose-dependent and reversible manner”. In data set [3], the “effect on cold response” value was “does not affect”, the “effect on latency to paw withdrawal response to an infrared heat (IR) stimulus” value was “does not affect” and the “effect on mechanical threshold” value is “does not affect”. Moreover, in data set [4] (1000 μg), the “effect on motor coordination (rotarod), supra-maximal dose” value is on record as “reduced motor coordination, but this effect was small, not statistically significant”. For the same molecule, the “effect on motor coordination (rotarod)” value in data set [4] (p>0.05) is “does not affect”. The “gross behavioral changes or other obvious deleterious effects” value in the data set with SNI rats was “neither 15-deoxy-Δ^12,14 PGJ2 nor rosiglitazone produced gross behavioral changes or other obvious deleterious effects”.

For the molecule `CC(C)(c1ccc(OCC2CO2)cc1)c1ccc(OCC2CO2)cc1` (stereo not shown) [BADGE, bisphenol A diglycidyl ether], in data set [1] (administered alone, SNI rats), the “effect of antagonist administered alone on hindpaw withdrawal latency” value is “did not have a significant effect on hindpaw withdrawal latency”. Further, the “ED50, log dose-response curve, block of 15-deoxy-Δ^12,14 PGJ2-induced elevation of mechanical threshold” value in data set [1] (intrathecal co-administration with 100 μg 15-deoxy-Δ^12,14 PGJ2, 60 minutes after injection, SNI rats) came out at 11.44 μg. For the same molecule, the “effect of co-administered antagonist on analgesic effects of 15-deoxy-Δ^12,14 PGJ2 (mechanical threshold)” value in data set [1] (intrathecal co-administration with 100 μg 15-deoxy-Δ^12,14 PGJ2, SNI rats) is listed as “eliminated the analgesic effects of 15-deoxy-Δ^12,14 PGJ2”. Further, the “effect of co-administered antagonist on rosiglitazone analgesia (mechanical hypersensitivity)” value in data set [1] (intrathecal co-administration with 100 μg rosiglitazone, SNI rats) is recorded as “eliminated the analgesic effects of 100 μg rosiglitazone on mechanical hypersensitivity in a dose-dependent manner”. Besides, the “effect of co-administered antagonist on rosiglitazone analgesia (cold hypersensitivity)” value in data set [2] (intrathecal co-administration with 100 μg rosiglitazone) was “dose-dependently eliminated the analgesic effects of rosiglitazone”.

For the molecule `CCCCC/C=C/C=C1/C(=O)C=C[C@@H]1CC=CCCCC(=O)O` (stereo in doubt) [15-deoxy-Δ^12,14 PGJ2, (Z)-7-[(1S,5E)-5-[(E)-oct-2-enylidene]-4-oxo-1-cyclopent-2-enyl]hept-5-enoic acid], in data set [1] (SNI rats), the “effect of agonist alone on latency to hindpaw withdrawal (mechanical)” value is “increased latency to hindpaw withdrawal”. Also, in data set [1] (intrathecal, SNI rats), the “dissipation of analgesic effect (mechanical threshold)” value is reported as “dissipated after four hours”, the “onset of analgesic effect after injection (mechanical threshold)” value was no more than 30 min, the “time of peak analgesic effect after injection (mechanical threshold)” value was “about 60 minutes” and the “effect on behavioral signs of neuropathic pain (mechanical threshold / latency to hindpaw withdrawal)” value is “reduced behavioral signs of neuropathic pain”. Further, the “ED50, log dose-response curve, mechanical threshold (hindpaw withdrawal)” value in data set [1] (intrathecal, SNI rats, 60 minutes after injection) is listed as 73.97 μg. In addition, in the data set with SNI rats, the “gross behavioral changes or other obvious deleterious effects” value is listed as “neither 15-deoxy-Δ^12,14 PGJ2 nor rosiglitazone produced gross behavioral changes or other obvious deleterious effects”.
